The values below are quoted from earlier work in patent US20030224072A1, “Topical and oral administration of a composition containing Pelargonium Graveolens for diagnosis and treatment of various neuralgias and other conditions” (priority 2002, published 2003).

Structures are written as SMILES.

This data set concerns neuropathic pain. As to conditions: topical.

In the case of `COc1cc(CNC(=O)CCCC/C=C/C(C)C)ccc1O` [Capsaicin], the “duration of burning sensation on skin” value was “approximately one week” and the “share of neuropathic pain patients with pain relief” value is recorded as “only a small percentage”.
